Measurements as given in paper PMC9862096, “Interaction of a Homologous Series of Amphiphiles with P-glycoprotein in a Membrane Environment—Contributions of Polar and Non-Polar Interactions” (Pharmaceutics, 2023).

What was measured:
[1] = Critical aggregation concentration from NBD fluorescence (literature); assay type: physicochemical; details: extrapolated from the co-solvent effect on NBD–Cn
Source text: One important aspect which is usually overlooked in the studies of interactions with P–gp is whether the molecule of interest is in its monomeric state or aggregated. Some studies with detergents have included information regarding the formation of micelles and concluded that a complex effect on the ATPase activity (enhancement and inhibition) is observed even for concentrations below their CMC [21, 32, 91]. However, small aggregates are formed at concentrations several orders of magnitude smaller than the concentration at which micelles are detectable (their CMC). The aggregation behavior of the NBD amphiphiles used in this study was characterized by changes in the fluorescence properties of the NBD group and is, therefore, sensitive to the formation of small aggregates including dimers. The critical aggregation concentrations (CAC) at 25 °C are 1, 4, and 250 μM for NBD–C8, NBD–LysoMPE, and NBD–C4, respectively. […] An increase to at least 24 µM is thus predicted for NBD–LysoMPE.

[2] = cited from earlier work
[3] = Association (partition) with model membranes (LUVs POPE:POPC:POPS 45:35:20); assay type: physicochemical; details: aqueous phase to model lipid bilayer
Method: The model membranes with a phospholipid composition representative of that of the native membranes (POPE:POPC:POPS 45:35 20) were prepared from stock solutions of the required lipids in chloroform or in chloroform/methanol (87/13, v/v), as described before. The solvent-free lipid residue was hydrated at 40 °C with previously heated simplified ATPase assay buffer (with all components except Ouabain and DTT). Large Unilamelar Vesicles were prepared by extrusion through two-staked polycarbonate filters (100 nm pore diameter), and the size of the LUVs was analyzed by dynamic light scattering (Zetasizer Nano ZS, Malvern, UK) being close to the filter pore size.
The membranes were diluted to the chosen concentration with simplified ATPase assay buffer and warmed to 37 °C. The NBD amphiphiles were added from stocks in DMSO (final DMSO 1% v/v) by squirting the required volume into the membrane solution under gentle vortex. Fluorescence intensity was measured after 15 to 30 min incubation at 37 °C using a Cary Eclipse spectrofluorimeter (Varian, Singapore). The path length of the sample container was selected to guarantee that scattering at the excitation wavelength was smaller than 0.1 while maintaining a good signal/noise ratio (3, 5, or 10 mm).
The increase in fluorescence of the NBD amphiphiles when associated with the model membranes was well described by a simple partition (Equation (S3)). The low affinity of the less lipophilic amphiphiles for the native membranes required the use of high membrane concentrations, and the fluorescence was measured with the plate reader SpectraMax iD5 (Molecular Devices, Berkshire, UK), where the reading setup is not very sensitive to scatter. To guarantee that the high scatter intensity was not leading to artifacts in the measured fluorescence intensity of NBD–C4, titrations of NBD-C6 and NBD–C8 were also performed in the same plate. For these two latter amphiphiles, the results obtained for the partition coefficient were similar to those obtained for experiments with low scatter intensity. A small decrease in the fluorescence intensity from NBD–C8 was nevertheless observed at very high scatter intensities (OD ≥ 0.5), which was used to correct the signal from the less lipophilic amphiphiles, see Supplementary Information (Figure S5 and Equation (S4)). The molar volume considered for the lipid was 0.8 dm^3/mol, and 1.2 g/mL was considered for the density of the membrane proteins.
S3 – Partition of the NBD amphiphiles to lipid bilayers and native membranes
The fluorescence increase that accompanies the association of the NBD amphiphiles with the
model membra nes was well defined by a simple partition, equation S3.
If 1540 nm Lb= + S3, KVL[]
where IfW and If M are respec ti vel y the fluorescence intensity when all fluorescent amphiphile is
in the aqueous phase and ass oci ated with the membranes, LbK is the partition co eff icient P
between the aqueous and the lipid bilayer, V is the molar vo l u m e of the lipid when in the lipid L
bi l ayer, and [L] is the lipid concentration. […]

P–gp = assay: Partition coefficient to membrane protein from Equations (1) and (2), binding to P–gp only; assay type: physicochemical, mouse; details: binding to the protein P–gp only; for KPW→P: aqueous phase to protein; for KPLb→P: lipid bilayer to protein
Source text: (§1) From the partition coefficient obtained for the native membranes, KPW→M , and that for the model lipid bilayers, KPW→Lb , one can calculate the partition coefficient between the aqueous phase and the proteins in the membrane, KPW→P , and from the lipid bilayer to the proteins, KPLb→P , Equations (1) and (2), [40]. (1) KPW→M VM=KPW→PVP+KPW→Lb VLb (2) KPLb→P=KPW→P/KPW→Lb
(§2) In Equation (1) it is necessary to include the volume occupied by the proteins, and the values obtained will, therefore, depend on whether it is considered that the amphiphile may interact with all proteins in the membrane or with P–gp only.

[4] = Partition coefficient to membrane proteins from Equations (1) and (2), all membrane proteins with equal affinity; assay type: physicochemical, High-Five insect cells; details: binding to all membrane proteins with equal affinity; for KPW→P: aqueous phase to proteins; for KPLb→P: lipid bilayer to proteins
Source text: as §1, §2

[5] = section: binding to all membrane proteins with equal affinity
[6] = section: binding to the protein P–gp only

SMILES	CAC predicted in the presence of co-solvents [1]	characteristic time of translocation between membrane leaflets [2]	KPW→Lb [3, 5]	KPW→Lb [3, 6]	KPW→P (P–gp)	KPLb→P (P–gp)	KPW→P [4]	KPLb→P [4]	time for equilibration between both membrane leaflets (translocation) ([2]; Section 3.4 and ref 77)
CCCCCCCCCCCCCC(=O)OCC(O)COP(=O)(O)OCCNc1ccc([N+](=O)[O-])c2nonc12 (stereo not drawn) [NBD–LysoMPE]	at least 24 µM	several hours							
CCCCCCCCNc1ccc([N+](=O)[O-])c2nonc12 [NBD–C8]			1.9 × 10^4	1.9 × 10^4	2.3 × 10^5	12	2.3 × 10^3	0.12	within a few seconds
CCCCNc1ccc([N+](=O)[O-])c2nonc12 [NBD–C4]			3.9 × 10^2	3.9 × 10^2	6.9 × 10^4	176	6.9 × 10^2	1.8	
